US20150094474A1, “AGRICULTURAL CHEMICALS” (Redx Pharma Ltd., priority 2012, published 2015)

Legend:
barley = assay: Herbicidal bioassay, barley (% necrosis); type: in vivo
Experimental: (§1) A laboratory bioassay was conducted to screen ten compounds (Fluazifop (25); Ethyl fluazifop (62); five fluazifop analogues: 27, 28, 63, 64 and 65; mesofulfuron (6); and two mesosulfuron analogues: 8 and 61. for activity against Lolium perenne, barley, peas and Chinese cabbage. Compounds were diluted in DMSO. Controls were performed using both DMSO and water.
(§2) Plants were obtained as seeds and were grown to the 2-4 true leaf stage. Plants were grown individually in seed trays. Each plant (in an approximately 3 cm diameter plug) was then detached from the tray for spraying. Environmental conditions were closely monitored and recorded and were within the optimal range of the target species.
(§3) The compounds were screened at a range of six concentrations, eg. 0.05%, 0.01%, 0.005%, 0.001%, 0.0005% and 0.0001%. Treatments will be applied directly onto the plants, using a potter tower.
(§4) One plant of each type will be sprayed using a potter tower. The 4 different types of weeds will be placed in a 10 cm diameter area underneath the potter sprayer and sprayed simultaneously. The growth of the plants and any Phytotoxicity effects will then be assessed at specified growth intervals, according to EPPO guideline PP1/135. Five replicates will be performed for each treatment, for each species.

peas = assay: Herbicidal bioassay, peas (% necrosis); type: in vivo
Experimental: as §1, §2, §3, §4

In the case of `CC(Oc1ccc(Oc2ccc(C(F)(F)F)cn2)cc1)C(=O)O` (stereo not drawn) [Compound 25, Fluazifop, reference compound], the “Sum of % necrosis in barley” value (barley; Dose 0.000001, Day 0) is reported as “C (less than 50% necrosis)”, the “Sum of % necrosis in barley” value (barley; Dose 0.000001, Day 1) is reported as “C (less than 50% necrosis)” and the “Sum of % necrosis in barley” value (barley; Dose 0.000001, Day 3) is reported as “C (less than 50% necrosis)”. The “Sum of % necrosis in barley” value (barley; Dose 0.000001, Day 7) was “C (less than 50% necrosis)”, the “Sum of % necrosis in barley” value (barley; Dose 0.000001, Day 10) was “C (less than 50% necrosis)” and the “Sum of % necrosis in barley” value (barley; Dose 0.000001, Day 14) was “C (less than 50% necrosis)”. For the same compound, the “Sum of % necrosis in barley” value (barley; Dose 0.000001, Day 21) was “C (less than 50% necrosis)”, the “Sum of % necrosis in barley” value (barley; Dose 0.000005, Day 0) was “C (less than 50% necrosis)” and the “Sum of % necrosis in barley” value (barley; Dose 0.000005, Day 1) was “C (less than 50% necrosis)”. The “Sum of % necrosis in barley” value (barley; Dose 0.000005, Day 3) was “C (less than 50% necrosis)”, the “Sum of % necrosis in barley” value (barley; Dose 0.000005, Day 7) was “C (less than 50% necrosis)” and the “Sum of % necrosis in barley” value (barley; Dose 0.000005, Day 10) was “C (less than 50% necrosis)”. For the same compound, the “Sum of % necrosis in barley” value (barley; Dose 0.000005, Day 14) was “C (less than 50% necrosis)”, the “Sum of % necrosis in barley” value (barley; Dose 0.000005, Day 21) was “C (less than 50% necrosis)” and the “Sum of % necrosis in barley” value (barley; Dose 0.00001, Day 0) was “C (less than 50% necrosis)”. For the same compound, the “Sum of % necrosis in barley” value (barley; Dose 0.00001, Day 1) was “C (less than 50% necrosis)”, the “Sum of % necrosis in barley” value (barley; Dose 0.00001, Day 3) was “C (less than 50% necrosis)” and the “Sum of % necrosis in barley” value (barley; Dose 0.00001, Day 7) was “C (less than 50% necrosis)”. The “Sum of % necrosis in barley” value (barley; Dose 0.00001, Day 10) was “C (less than 50% necrosis)”, the “Sum of % necrosis in barley” value (barley; Dose 0.00001, Day 14) was “C (less than 50% necrosis)” and the “Sum of % necrosis in barley” value (barley; Dose 0.00001, Day 21) was “C (less than 50% necrosis)”. The “Sum of % necrosis in barley” value (barley; Dose 0.00005, Day 0) was “C (less than 50% necrosis)”, the “Sum of % necrosis in barley” value (barley; Dose 0.00005, Day 1) was “C (less than 50% necrosis)” and the “Sum of % necrosis in barley” value (barley; Dose 0.00005, Day 3) was “C (less than 50% necrosis)”. For the same compound, the “Sum of % necrosis in barley” value (barley; Dose 0.00005, Day 7) was “C (less than 50% necrosis)”, the “Sum of % necrosis in barley” value (barley; Dose 0.00005, Day 10) was “C (less than 50% necrosis)” and the “Sum of % necrosis in barley” value (barley; Dose 0.00005, Day 14) was “C (less than 50% necrosis)”. The “Sum of % necrosis in barley” value (barley; Dose 0.00005, Day 21) was “A (over 80% necrosis)”, the “Sum of % necrosis in barley” value (barley; Dose 0.0001, Day 0) was “C (less than 50% necrosis)” and the “Sum of % necrosis in barley” value (barley; Dose 0.0001, Day 1) was “C (less than 50% necrosis)”. The “Sum of % necrosis in barley” value (barley; Dose 0.0001, Day 3) was “C (less than 50% necrosis)”, the “Sum of % necrosis in barley” value (barley; Dose 0.0001, Day 7) was “C (less than 50% necrosis)” and the “Sum of % necrosis in barley” value (barley; Dose 0.0001, Day 10) was “C (less than 50% necrosis)”. The “Sum of % necrosis in barley” value (barley; Dose 0.0001, Day 14) was “C (less than 50% necrosis)”, the “Sum of % necrosis in barley” value (barley; Dose 0.0001, Day 21) was “A (over 80% necrosis)” and the “Sum of % necrosis in barley” value (barley; Dose 0.0005, Day 0) was “C (less than 50% necrosis)”. The “Sum of % necrosis in barley” value (barley; Dose 0.0005, Day 1) was “C (less than 50% necrosis)”, the “Sum of % necrosis in barley” value (barley; Dose 0.0005, Day 3) was “C (less than 50% necrosis)” and the “Sum of % necrosis in barley” value (barley; Dose 0.0005, Day 7) was “C (less than 50% necrosis)”. For the same compound, the “Sum of % necrosis in barley” value (barley; Dose 0.0005, Day 10) was “C (less than 50% necrosis)”, the “Sum of % necrosis in barley” value (barley; Dose 0.0005, Day 14) was “B (50%-80% necrosis)” and the “Sum of % necrosis in barley” value (barley; Dose 0.0005, Day 21) was “A (over 80% necrosis)”. For the same compound, the “Sum of % necrosis in Peas” value (peas; Dose 0.000001, Day 0) was “C (less than 50% necrosis)”, the “Sum of % necrosis in Peas” value (peas; Dose 0.000001, Day 1) was “C (less than 50% necrosis)” and the “Sum of % necrosis in Peas” value (peas; Dose 0.000001, Day 3) was “C (less than 50% necrosis)”. For the same compound, the “Sum of % necrosis in Peas” value (peas; Dose 0.000001, Day 7) was “C (less than 50% necrosis)”, the “Sum of % necrosis in Peas” value (peas; Dose 0.000001, Day 10) was “C (less than 50% necrosis)” and the “Sum of % necrosis in Peas” value (peas; Dose 0.000001, Day 14) was “C (less than 50% necrosis)”. For the same compound, the “Sum of % necrosis in Peas” value (peas; Dose 0.000001, Day 21) was “C (less than 50% necrosis)”, the “Sum of % necrosis in Peas” value (peas; Dose 0.000005, Day 0) was “C (less than 50% necrosis)” and the “Sum of % necrosis in Peas” value (peas; Dose 0.000005, Day 1) was “C (less than 50% necrosis)”. The “Sum of % necrosis in Peas” value (peas; Dose 0.000005, Day 3) was “C (less than 50% necrosis)”, the “Sum of % necrosis in Peas” value (peas; Dose 0.000005, Day 7) was “C (less than 50% necrosis)” and the “Sum of % necrosis in Peas” value (peas; Dose 0.000005, Day 10) was “C (less than 50% necrosis)”. The “Sum of % necrosis in Peas” value (peas; Dose 0.000005, Day 14) was “C (less than 50% necrosis)”, the “Sum of % necrosis in Peas” value (peas; Dose 0.000005, Day 21) was “C (less than 50% necrosis)” and the “Sum of % necrosis in Peas” value (peas; Dose 0.00001, Day 0) was “C (less than 50% necrosis)”. The “Sum of % necrosis in Peas” value (peas; Dose 0.00001, Day 1) was “C (less than 50% necrosis)”, the “Sum of % necrosis in Peas” value (peas; Dose 0.00001, Day 3) was “C (less than 50% necrosis)” and the “Sum of % necrosis in Peas” value (peas; Dose 0.00001, Day 7) was “C (less than 50% necrosis)”. For the same compound, the “Sum of % necrosis in Peas” value (peas; Dose 0.00001, Day 10) was “B (50%-80% necrosis)”, the “Sum of % necrosis in Peas” value (peas; Dose 0.00001, Day 14) was “B (50%-80% necrosis)” and the “Sum of % necrosis in Peas” value (peas; Dose 0.00001, Day 21) was “A (over 80% necrosis)”. For the same compound, the “Sum of % necrosis in Peas” value (peas; Dose 0.00005, Day 0) was “C (less than 50% necrosis)”, the “Sum of % necrosis in Peas” value (peas; Dose 0.00005, Day 1) was “C (less than 50% necrosis)” and the “Sum of % necrosis in Peas” value (peas; Dose 0.00005, Day 3) was “C (less than 50% necrosis)”. For the same compound, the “Sum of % necrosis in Peas” value (peas; Dose 0.00005, Day 7) was “C (less than 50% necrosis)”, the “Sum of % necrosis in Peas” value (peas; Dose 0.00005, Day 10) was “C (less than 50% necrosis)” and the “Sum of % necrosis in Peas” value (peas; Dose 0.00005, Day 14) was “C (less than 50% necrosis)”. For the same compound, the “Sum of % necrosis in Peas” value (peas; Dose 0.00005, Day 21) was “A (over 80% necrosis)”, the “Sum of % necrosis in Peas” value (peas; Dose 0.0001, Day 0) was “C (less than 50% necrosis)” and the “Sum of % necrosis in Peas” value (peas; Dose 0.0001, Day 1) was “C (less than 50% necrosis)”. For the same compound, the “Sum of % necrosis in Peas” value (peas; Dose 0.0001, Day 3) was “C (less than 50% necrosis)”, the “Sum of % necrosis in Peas” value (peas; Dose 0.0001, Day 7) was “C (less than 50% necrosis)” and the “Sum of % necrosis in Peas” value (peas; Dose 0.0001, Day 10) was “C (less than 50% necrosis)”. For the same compound, the “Sum of % necrosis in Peas” value (peas; Dose 0.0001, Day 14) was “C (less than 50% necrosis)”, the “Sum of % necrosis in Peas” value (peas; Dose 0.0001, Day 21) was “A (over 80% necrosis)” and the “Sum of % necrosis in Peas” value (peas; Dose 0.0005, Day 0) was “C (less than 50% necrosis)”. For the same compound, the “Sum of % necrosis in Peas” value (peas; Dose 0.0005, Day 1) was “C (less than 50% necrosis)”, the “Sum of % necrosis in Peas” value (peas; Dose 0.0005, Day 3) was “C (less than 50% necrosis)” and the “Sum of % necrosis in Peas” value (peas; Dose 0.0005, Day 7) was “C (less than 50% necrosis)”. For the same compound, the “Sum of % necrosis in Peas” value (peas; Dose 0.0005, Day 10) was “C (less than 50% necrosis)”, the “Sum of % necrosis in Peas” value (peas; Dose 0.0005, Day 14) was “C (less than 50% necrosis)” and the “Sum of % necrosis in Peas” value (peas; Dose 0.0005, Day 21) was “A (over 80% necrosis)”.
